Patent US6962926B2, “Antagonist of MCP-1 function, and compositions and methods of use thereof” (Telik, Inc., priority 2001, dated 2005)

Tested on: Experimental Allergic Encephalomyelitis (EAE)
Assay: Experimental Allergic Encephalomyelitis (EAE) model of multiple sclerosis
Type: in vivo
Conditions: mice, MOG35-55-induced EAE, 30 mg/Kg twice daily for 35 days
Experimental: EAE was induced in two groups, each of 10 mice, by subcutaneous injection into the flank of 150 μg of the encephalitogenic peptide MOG35-55 ([…]; Auspep, Melbourne, Australia) emulsified in complete Freund's adjuvant (Difco, Detroit, U.S.A.), supplemented with 4 mg/mL of Mycobacterium tuberculosis, followed by intravenous injection of 350 ng of pertussis vaccine (List Biological Laboratories, Campbell, U.S.A.), with the pertussis vaccine injection repeated after 48 hours.
Compound 1 was dissolved in 3% aqueous Tween 80 at 4mg/mL and stored at 4° C. Starting on the day of immunization with MOG35-55, the mice were treated twice daily with 30 mg/Kg of compound 1 or an equal volume of water for the 35 day duration of the experiment.
The mice were monitored daily and neurological impairment was quantified on an arbitrary scale: 0, no detectable impairment; 1, flaccid tail; 2, hind limb weakness; 3, hind limb paralysis; 4, hind limb paralysis and ascending paralysis; 5, moribund or dead.
At the end of the experiment, the mice were killed and hematoxylin and eosin stained sections of brain and spinal cord were scored blindly by two independent investigators using the following scale: 0, no inflammation; 1, few very small cellular infiltrate in the perivascular areas and meninges; 2, mild cellular infiltrate; 3, moderate cellular infiltrate; 4, severe cellular infiltrate; 5, very large and extensive cellular infiltrate.

[1] = neurological impairment scale 0-5

SMILES: Cc1nn(C)c2nc(OCCN3CCCC3)c(C(=O)NC(=O)Nc3cccc(OC(C)C)c3)cc12.Cl [Compound 1, 1-{1,3-dimethyl-6-[2-(pyrrolidin-1-yl)ethoxy]-1H-pyrazolo[3,4-b]pyridine-5-carbonyl}-3-(3-isopropoxyphenyl)urea hydrochloride]
- Mean onset: 17.2 days
- EAE incidence (affected/total): 5/10
- Mean cumulative score [1]: 7.25
- Mean maximum score [1]: 1.4
